Assays:
Cdk2(S276C) (C177A) = molecular target: T1, Cdk2(S276C) (C177A) (Homo sapiens, UniProt P24941, C177A/S276C); assay: Kinetic thiol consumption assay with Cdk2 mutant S276C; format: binding; set-up: key to Rate enhancement, Cdk2 S276C: rate constant with Cdk2 ÷ rate constant with model thiol (fold); settings: additional mutation C177A; for Rate constant with Cdk2 S276C: Protein: Cdk2, cysteine position S276C, in h^-1
T1 construct: poly-histidine; made in house; host or cells: E. coli
Summary of the method: (§1)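 Read-out is fluorescence at 380/470 nm, taken after 1 h at room temperature and normalized to a DMSO/thiol-only control over time. Thiol (5 μM Cdk2 mutant or model thiol) was in degassed pH 8 phosphate buffer with 2% v/v TCEP beads. Acrylamide rate constants for Cdk2 were divided by those with model thiol.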

[1] = molecular target: T2, human cyclin-dependent kinase 2 (Cdk2) (Homo sapiens, UniProt P24941); assay: Kinetic thiol consumption assay with wild type Cdk2 (C177); format: binding; set-up: key to Rate enhancement, Cdk2 WT: k(Cdk2) divided by k(model thiol); Rate constant with Cdk2 (k(Cdk2)): unit not given here; settings: for Rate constant with Cdk2 (k(Cdk2)): 500 μM ligand, 5 μM thiol, phosphate buffer pH 8; for Rate enhancement, Cdk2 WT: no additional mutations; for Rate constant with Cdk2 WT: Protein: Cdk2, cysteine position WT, in h^-1; for k(Cdk2)/k(Cdk2_mut) rate enhancement: model thiol Cdk2[C177A, F80C, K278C]; for k(Cdk2)/k(GSH) rate enhancement: model thiol glutathione
T2 construct: poly-histidine; made in house; host or cells: E. coli
Summary of the method: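 His-tagged human Cdk2 (single surface cysteine C177), expressed in E. coli, or a model thiol at 5 μM in degassed phosphate buffer pH 8 was pre-treated with immobilized TCEP beads (2% v/v) before acrylamide addition. Fluorescence (ex/em 380/470 nm) was read after 1 h at room temperature, normalized to DMSO/thiol-only control and plotted versus time.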

Cdk2(N272C) (C177A) = molecular target: T3, Cdk2(N272C) (C177A) (Homo sapiens, UniProt P24941, C177A/N272C); assay: Kinetic thiol consumption assay with Cdk2 mutant N272C; format: binding; set-up: key to Rate enhancement, Cdk2 N272: rate constant with Cdk2 ÷ rate constant with model thiol (fold); settings: for Rate enhancement, Cdk2 N272: Cdk2 N272, additional mutation C177A; for Rate constant with Cdk2 N272C: Protein: Cdk2, cysteine position N272C, additional mutation C177A, in h^-1
T3 construct: poly-histidine; made in house; host or cells: E. coli
Summary of the method: as §1

[2] = Kinetic thiol consumption assay with model thiol glutathione; format: physicochemical; set-up: Rate constant with glutathione (k(GSH)): unit not given here; settings: for Rate constant with glutathione (k(GSH)): 500 μM ligand, 5 μM thiol, phosphate buffer pH 8; for Rate constant with Glutathione: Protein: Glutathione, cysteine position NA, in h-1
Summary of the method: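 First, 5 μM glutathione in degassed phosphate buffer (pH 8) receives immobilized TCEP beads (2% v/v). Then acrylamide is added and plates incubate 1 h at room temperature. Finally, fluorescence (380/470 nm) is normalized and fitted to first-order decay for rate constants.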

Cdk2[C177A, F80C, K278C] = molecular target: T4, Cdk2[C177A, F80C, K278C] (Homo sapiens, UniProt P24941, C177A/F80C/K278C); assay: Kinetic thiol consumption assay with mutant Cdk2 as model thiol; format: binding; set-up: unit not given here; settings: 500 μM ligand, 5 μM thiol, phosphate buffer pH 8
T4 construct: poly-histidine; made in house; host or cells: E. coli
Summary of the method: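 First-order rate constants were derived by exponential-decay fitting of DMSO/thiol-normalized fluorescence (380/470 nm) over time at room temperature. Thiol was 5 μM E. coli-expressed His-tagged Cdk2 mutant C177A/F80C/K278C in degassed pH 8 phosphate buffer containing 2% v/v TCEP beads.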

Cdk2(T182C) (C177A) = molecular target: T5, Cdk2(T182C) (C177A) (Homo sapiens, UniProt P24941, C177A/T182C); assay: Kinetic thiol consumption assay with Cdk2 mutant T182C; format: binding; set-up: key to Rate enhancement, Cdk2 T182C: rate constant with Cdk2 ÷ rate constant with model thiol (fold); settings: additional mutation C177A; for Rate constant with Cdk2 T182C: Protein: Cdk2, cysteine position T182C, in h^-1
T5 construct: poly-histidine; made in house; host or cells: E. coli
Summary of the method: as §1

Cdk2(C177A, F80C) = molecular target: T6, Cdk2(C177A, F80C) (Homo sapiens, UniProt P24941, C177A/F80C); assay: Kinetic thiol consumption assay with Cdk2 mutant F80C, incl. kobs versus concentration (Kd, k2); format: binding; set-up: key to Rate enhancement, Cdk2 F80C: Cdk2 rate constant divided by model-thiol rate constant; settings: additional mutation C177A; for Rate constant with Cdk2 F80C: Protein: Cdk2, cysteine position F80C, in h^-1
T6 construct: poly-histidine; made in house; host or cells: E. coli
Summary of the method: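 His-tagged Cdk2(C177A/F80C) from E. coli or model thiol, 5 μM in degassed phosphate buffer pH 8 with TCEP beads, reacted with acrylamide ligands; fluorescence (ex/em 380/470 nm) normalized to DMSO control and fitted to first-order decay for kobs. Kd and k2 obtained from hyperbolic fit of kobs versus ligand concentration.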

Cdk2(R122C) (C177A) = molecular target: T7, Cdk2(R122C) (C177A) (Homo sapiens, UniProt P24941, C177A/R122C); assay: Kinetic thiol consumption assay with Cdk2 mutant R122C; format: binding; set-up: key to Rate enhancement, Cdk2 R122C: rate constant with Cdk2 ÷ rate constant with model thiol (fold); settings: additional mutation C177A; for Rate constant with Cdk2 R122C: Protein: Cdk2, cysteine position R122C, in h-1
T7 construct: poly-histidine; made in house; host or cells: E. coli
Summary of the method: as §1

Cdk2(H71C) (C177A) = molecular target: T8, Cdk2(H71C) (C177A) (Homo sapiens, UniProt P24941, C177A/H71C); assay: Kinetic thiol consumption assay with Cdk2 mutant H71C; format: binding; set-up: key to Rate enhancement, Cdk2 H71C: rate constant with Cdk2 ÷ rate constant with model thiol (fold); settings: additional mutation C177A; for Rate constant with Cdk2 H71C: Protein: Cdk2, cysteine position H71C, in h^-1
T8 construct: poly-histidine; made in house; host or cells: E. coli
Summary of the method: as §1

Cdk2(S181C) (C177A) = molecular target: T9, Cdk2(S181C) (C177A) (Homo sapiens, UniProt P24941, C177A/S181C); assay: Kinetic thiol consumption assay with Cdk2 mutant S181C; format: binding; set-up: key to Rate enhancement, Cdk2 S181C: rate constant with Cdk2 ÷ rate constant with model thiol (fold); settings: additional mutation C177A; for Rate constant with Cdk2 S181C: Protein: Cdk2, cysteine position S181C, in h^-1
T9 construct: poly-histidine; made in house; host or cells: E. coli
Summary of the method: as §1

SMILES | Rate enhancement, Cdk2 S276C (Cdk2(S276C) (C177A)) | Rate constant with Cdk2 S276C (Cdk2(S276C) (C177A)) | Rate constant with Cdk2 (k(Cdk2)) [1] | Rate enhancement, Cdk2 WT [1] | Rate constant with Cdk2 WT [1] | k(Cdk2)/k(Cdk2_mut) rate enhancement [1] | k(Cdk2)/k(GSH) rate enhancement [1] | Rate enhancement, Cdk2 N272 (Cdk2(N272C) (C177A)) | Rate constant with Cdk2 N272C (Cdk2(N272C) (C177A)) | Rate constant with glutathione (k(GSH)) [2] | Rate constant with Glutathione [2] | Rate constant with Cdk2[C177A, F80C, K278C] (k(Cdk2_mut)) (Cdk2[C177A, F80C, K278C]) | Rate enhancement, Cdk2 T182C (Cdk2(T182C) (C177A)) | Rate constant with Cdk2 T182C (Cdk2(T182C) (C177A)) | Rate enhancement, Cdk2 F80C (Cdk2(C177A, F80C)) | Rate enhancement, Cdk2 R122C (Cdk2(R122C) (C177A)) | Rate constant with Cdk2 R122C (Cdk2(R122C) (C177A)) | Rate enhancement, Cdk2 H71C (Cdk2(H71C) (C177A)) | Rate constant with Cdk2 H71C (Cdk2(H71C) (C177A)) | Rate enhancement, Cdk2 S181C (Cdk2(S181C) (C177A)) | other results
C=CC(=O)Nc1cccc(C(F)(F)F)c1 [BN-80] | 0.6024 | 0.01797 | 0.0419 | 1.405 | 0.0419 | 0.3263 | 1.404 | 0.2072 | 0.006181 | 0.02984 | 0.02983 | 0.1284 | 4.026 | 0.1201 | 1.308 | 0.5528 | 0.01649 | 0.1247 | 0.003721 | 0.4626 | Rate constant with Cdk2 F80C (Cdk2(C177A, F80C)): 0.03902; Rate constant with Cdk2 S181C (Cdk2(S181C) (C177A)): 0.0138
C=CC(=O)NCC1CN(C2CC2)CCO1 (stereo not shown) [CA-038] | 0.5828 | 0.006591 | 0.00332 | 0.5218 | 0.005901 | 0.9623 | 0.5101 | 0.592 | 0.006696 | 0.0065 | 0.01131 | 0.00345 | 1.744 | 0.01973 | 0 | 0.3691 | 0.004175 | 0.8254 | 0.009335 | 0.4715 | Rate constant with Cdk2 S181C (Cdk2(S181C) (C177A)): 0.005333
C=CC(=O)NC1C2C3CCC(C3)C12 (stereo not shown) [CA-097] | 0.8141 | 0.008009 | 0.00152 | 0.1544 | 0.001519 | 0.3735 | 0.2854 | 0.5898 | 0.005802 | 0.00533 | 0.009838 | 0.00407 | 1.447 | 0.01424 | 0.1887 | 0.3499 | 0.003442 | 0.1566 | 0.001541 | 0 | Rate constant with Cdk2 F80C (Cdk2(C177A, F80C)): 0.001856
C=CC(=O)N1CCCCCC1c1cccs1 (stereo not shown) [EL-1063] | 0.5613 | 0.001905 | 0.00274 | 0.8082 | 0.002743 | 0.5955 | 0.7775 | 1.172 | 0.003977 | 0.00353 | 0.003394 | 0.00461 | 9.081 | 0.03082 | 2.756 | 0.7319 | 0.002484 | 1.092 | 0.003705 | 1.561 | Rate constant with Cdk2 F80C (Cdk2(C177A, F80C)): 0.009353; Rate constant with Cdk2 S181C (Cdk2(S181C) (C177A)): 0.005297
C=CC(=O)N1C(C(=O)c2ccccc2)C1c1ccccc1 (stereo not shown) [CA-53] | 1 | 0.004301 | 0.00097 | 0.2251 | 0.000968 | 0.177 | 0.226 | 1.415 | 0.006086 | 0.00428 | 0.004301 | 0.00547 | 13.66 | 0.05877 | 2.22 | 1.018 | 0.004377 | 1.165 | 0.005009 | 14.88 | Rate constant with Cdk2 F80C (Cdk2(C177A, F80C)): 0.009547; Rate constant with Cdk2 S181C (Cdk2(S181C) (C177A)): 0.06402
C=CC(=O)Nc1ccc2nc(C)[nH]c2c1 [EL-1109] | 0.9188 | 0.007876 | 0.00827 | 0.9701 | 0.008316 | 0.8966 | 0.9595 | 0.3872 | 0.003319 | 0.00862 | 0.008572 | 0.00922 | 5.286 | 0.04531 | 1.94 | 0.7255 | 0.006219 | 0.5644 | 0.004838 | 1.588 | Rate constant with Cdk2 F80C (Cdk2(C177A, F80C)): 0.01663; Rate constant with Cdk2 S181C (Cdk2(S181C) (C177A)): 0.01361

Source: patent US11415579B2, “Assay for measuring a rate of reaction between a target and a ligand candidate” (Imperial College Innovations Ltd., priority 2016, dated 2022)
